Data as given in ChEMBL document CHEMBL5252536, “Discovery of VU0467485/AZ13713945: An M4 PAM Evaluated as a Preclinical Candidate for the Treatment of Schizophrenia” (ACS Med Chem Lett, 2017).

Legend:
[1] = Cmax in Beagle dog at 3 mg/kg,po by LC-MS/MS analysis; type: ADME, organism-based, Canis lupus familiaris; parameters: dose 3 mg/kg, route po; details: in vivo
[2] = Tmax in Beagle dog at 3 mg/kg,po by LC-MS/MS analysis; type: ADME, organism-based, Canis lupus familiaris; details: in vivo
[3] = Genotoxicity in Salmonella typhimurium TA98 by Ames test; type: toxicity; details: salmonella enterica subsp. enterica serovar typhimurium
[4] = Ratio of drug concentration in Sprague-Dawley rat brain to plasma at 1 to 10 mg/kg, po by LC-MS/MS analysis; type: ADME, organism-based; details: dose 1-10 mg/kg, read-out: BPR
[5] = biological target: T1, Muscarinic acetylcholine receptor M2 (Homo sapiens, UniProt P08172); assay: Positive allosteric modulator activity at human M2 receptor expressed in CHO cells co-expressing Gqi5 assessed as maximal response to ACh by calcium mobilization assay; type: cell-based
T1 sequence (P08172 whole entry): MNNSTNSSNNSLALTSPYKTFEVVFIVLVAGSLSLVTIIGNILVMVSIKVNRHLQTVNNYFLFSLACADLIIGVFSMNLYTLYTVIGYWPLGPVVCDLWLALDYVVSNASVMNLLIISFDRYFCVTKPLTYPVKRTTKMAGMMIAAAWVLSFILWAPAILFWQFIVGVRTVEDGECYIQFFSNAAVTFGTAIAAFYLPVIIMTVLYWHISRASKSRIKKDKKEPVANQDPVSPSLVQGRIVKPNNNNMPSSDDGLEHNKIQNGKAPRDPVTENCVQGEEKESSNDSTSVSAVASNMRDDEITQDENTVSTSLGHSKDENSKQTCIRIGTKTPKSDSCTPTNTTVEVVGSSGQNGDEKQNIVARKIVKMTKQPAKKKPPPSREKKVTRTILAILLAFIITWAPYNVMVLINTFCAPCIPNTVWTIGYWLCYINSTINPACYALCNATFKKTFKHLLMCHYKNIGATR

[6] = Toxicity in rat assessed as effect on autonomical parameters at 56.6 mg/kg, po measured after 6 hrs by Irwin test; type: organism-based; details: in vivo
[7] = Elimination half life in Cynomolgous monkey at 0.2 mg/kg,iv by LC-MS/MS analysis; details: cynomolgus monkey, in vivo, read-out: beta t1/2 (converted)
Cytochrome P450 1A2 [8] = biological target: T2, Cytochrome P450 1A2 (Homo sapiens, UniProt P05177); assay: Activation of CYP1A2 in human hepatocyte using phenacetin as substrate preincubated for 5 days followed by substrate addition and measured after 1 hr by LC-MS/MS analysis; type: ADME, cell-based
T2 sequence (P05177 whole entry): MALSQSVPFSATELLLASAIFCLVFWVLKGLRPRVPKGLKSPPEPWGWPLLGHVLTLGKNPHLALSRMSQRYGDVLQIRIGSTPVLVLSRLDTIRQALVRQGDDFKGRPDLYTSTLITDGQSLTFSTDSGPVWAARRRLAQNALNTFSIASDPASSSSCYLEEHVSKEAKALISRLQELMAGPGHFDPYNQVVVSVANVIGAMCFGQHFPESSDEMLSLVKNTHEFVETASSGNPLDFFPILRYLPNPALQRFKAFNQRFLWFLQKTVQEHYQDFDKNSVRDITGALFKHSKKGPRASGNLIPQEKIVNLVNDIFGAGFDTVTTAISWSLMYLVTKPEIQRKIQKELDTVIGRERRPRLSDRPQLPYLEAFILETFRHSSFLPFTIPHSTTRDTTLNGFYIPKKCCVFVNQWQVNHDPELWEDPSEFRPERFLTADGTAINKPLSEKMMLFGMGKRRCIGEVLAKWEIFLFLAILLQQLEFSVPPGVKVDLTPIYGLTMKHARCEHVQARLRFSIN

Cytochrome P450 1A2 [9] = biological target: T2, Cytochrome P450 1A2; assay: […] of human CYP1A2 mediated drug metabolism incubated for 5 mins followed by NADPH addition measured after 1 hr by LC-UV/MS analysis relative to control; type: ADME; details: recombinant enzyme, 1.083 h, time 65 min
[10] = AUC (0 to infinity) in Beagle dog at 3 mg/kg,po by LC-MS/MS analysis; type: ADME, organism-based, Canis lupus familiaris; parameters: dose 3 mg/kg, route po; details: in vivo
Cytochrome P450 2C19 = Cytochrome P450 2C19 (Homo sapiens, UniProt P33261); assay: […] of human CYP2C19 mediated drug metabolism incubated for 5 mins followed by NADPH addition measured after 1 hr by LC-UV/MS analysis relative to control; type: ADME; details: recombinant enzyme, 1.083 h, time 65 min
[11] = Plasma protein binding in rat assessed as unbound fraction incubated for 4 hrs by LC/MS/MS analysis; type: ADME, cell-free
[12] = Genotoxicity in Salmonella typhimurium TA100 by Ames test; type: toxicity; details: salmonella enterica subsp. enterica serovar typhimurium
[13] = Volume of distribution at steady state in Cynomolgous monkey at 0.2 mg/kg,iv by LC-MS/MS analysis; details: cynomolgus monkey, in vivo, read-out: Vdss
[14] = Ratio of drug concentration in Beagle dog brain to plasma at 3 mg/kg, po by LC-MS/MS analysis; type: ADME, organism-based, Canis lupus familiaris; details: read-out: BPR
Cytochrome P450 2D6 [15] = biological target: T3, Cytochrome P450 2D6 (Homo sapiens, UniProt P10635); assay: […] of human CYP2D6 mediated drug metabolism incubated for 5 mins followed by NADPH addition measured after 1 hr by LC-UV/MS analysis relative to control; type: ADME; details: recombinant enzyme, 1.083 h, time 65 min
[16] = biological target: Voltage-gated inwardly rectifying potassium channel KCNH2 (Homo sapiens, UniProt Q12809); assay: Inhibition of hERG cardiac ion channel; type: toxicity
[17] = Volume of distribution at steady state in Beagle dog at 3 mg/kg,po or 1 mg/kg,iv by LC-MS/MS analysis; type: ADME, organism-based, Canis lupus familiaris; details: in vivo
Cytochrome P450 3A4 = Cytochrome P450 3A4 (Homo sapiens, UniProt P08684); assay: […] of human CYP3A4 mediated drug metabolism incubated for 5 mins followed by NADPH addition measured after 1 hr by LC-UV/MS analysis relative to control; type: ADME; details: recombinant enzyme, 1.083 h, time 65 min
[18] = Elimination half life in Sprague-Dawley rat at 3 mg/kg,po or 1 mg/kg,iv by LC-MS/MS analysis; type: ADME, organism-based; details: in vivo, read-out: beta t1/2 (converted)
[19] = Volume of distribution at steady state in Sprague-Dawley rat at 3 mg/kg,po or 1 mg/kg,iv by LC-MS/MS analysis; type: ADME, organism-based; details: in vivo
Cytochrome P450 2D6 [20] = biological target: T3, Cytochrome P450 2D6; assay: Inhibition of CYP2D6 in human liver microsomes using dextromethorphan as substrate incubated for 15 mins in presence of NADPH by LC/MS/MS analysis; type: ADME, Microsome
[21] = Positive allosteric modulator activity at dog M4 receptor expressed in CHO cells co-expressing Gqi5 in presence of EC20 concentration of acetylcholine by calcium mobilization assay; type: cell-based
CHO = assay: Positive allosteric modulator activity at dog M4 receptor expressed in CHO cells co-expressing Gqi5 assessed as maximal response to ACh by calcium mobilization assay relative to contol; type: cell-based; details: Canis lupus familiaris, filed as positive allosteric modulator
[22] = Positive allosteric modulator activity at cynomolgus monkey M4 receptor expressed in CHO cells co-expressing Gqi5 in presence of EC20 concentration of acetylcholine by calcium mobilization assay; type: cell-based; details: Macaca fascicularis
[23] = AUC (0 to infinity) in Sprague-Dawley rat at 3 mg/kg,po by LC-MS/MS analysis; type: ADME, organism-based; parameters: dose 3 mg/kg, route po; details: in vivo

T3 sequence (P10635 whole entry): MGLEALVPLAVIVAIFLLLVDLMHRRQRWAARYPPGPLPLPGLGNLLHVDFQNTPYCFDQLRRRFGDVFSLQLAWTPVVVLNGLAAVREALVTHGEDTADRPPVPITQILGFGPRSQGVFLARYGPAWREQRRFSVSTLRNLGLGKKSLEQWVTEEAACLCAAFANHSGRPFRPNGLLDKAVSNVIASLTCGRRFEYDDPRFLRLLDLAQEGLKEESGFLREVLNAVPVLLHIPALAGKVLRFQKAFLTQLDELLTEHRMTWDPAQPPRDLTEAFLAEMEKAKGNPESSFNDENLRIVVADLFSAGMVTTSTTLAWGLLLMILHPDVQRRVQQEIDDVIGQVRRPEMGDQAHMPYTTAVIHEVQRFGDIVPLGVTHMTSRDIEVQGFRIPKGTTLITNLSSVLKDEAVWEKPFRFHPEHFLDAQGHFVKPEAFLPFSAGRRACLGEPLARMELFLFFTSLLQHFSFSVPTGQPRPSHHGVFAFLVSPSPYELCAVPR
Cytochrome P450 3A4, sequence (P08684 whole entry): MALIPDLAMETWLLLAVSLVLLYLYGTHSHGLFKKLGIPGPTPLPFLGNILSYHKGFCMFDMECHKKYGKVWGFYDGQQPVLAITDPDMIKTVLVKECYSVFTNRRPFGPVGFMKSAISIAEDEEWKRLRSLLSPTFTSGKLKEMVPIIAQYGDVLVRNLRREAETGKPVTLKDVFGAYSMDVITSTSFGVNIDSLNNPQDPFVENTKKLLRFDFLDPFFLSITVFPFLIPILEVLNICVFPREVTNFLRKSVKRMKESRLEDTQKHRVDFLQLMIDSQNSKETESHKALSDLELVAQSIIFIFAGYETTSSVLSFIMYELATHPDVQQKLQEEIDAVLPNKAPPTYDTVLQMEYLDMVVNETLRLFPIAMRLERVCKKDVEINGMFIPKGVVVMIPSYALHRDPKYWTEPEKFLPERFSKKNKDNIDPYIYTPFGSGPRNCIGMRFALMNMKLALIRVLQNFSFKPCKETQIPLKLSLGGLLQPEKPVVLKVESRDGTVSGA
Voltage-gated inwardly rectifying potassium channel KCNH2, sequence (Q12809 whole entry): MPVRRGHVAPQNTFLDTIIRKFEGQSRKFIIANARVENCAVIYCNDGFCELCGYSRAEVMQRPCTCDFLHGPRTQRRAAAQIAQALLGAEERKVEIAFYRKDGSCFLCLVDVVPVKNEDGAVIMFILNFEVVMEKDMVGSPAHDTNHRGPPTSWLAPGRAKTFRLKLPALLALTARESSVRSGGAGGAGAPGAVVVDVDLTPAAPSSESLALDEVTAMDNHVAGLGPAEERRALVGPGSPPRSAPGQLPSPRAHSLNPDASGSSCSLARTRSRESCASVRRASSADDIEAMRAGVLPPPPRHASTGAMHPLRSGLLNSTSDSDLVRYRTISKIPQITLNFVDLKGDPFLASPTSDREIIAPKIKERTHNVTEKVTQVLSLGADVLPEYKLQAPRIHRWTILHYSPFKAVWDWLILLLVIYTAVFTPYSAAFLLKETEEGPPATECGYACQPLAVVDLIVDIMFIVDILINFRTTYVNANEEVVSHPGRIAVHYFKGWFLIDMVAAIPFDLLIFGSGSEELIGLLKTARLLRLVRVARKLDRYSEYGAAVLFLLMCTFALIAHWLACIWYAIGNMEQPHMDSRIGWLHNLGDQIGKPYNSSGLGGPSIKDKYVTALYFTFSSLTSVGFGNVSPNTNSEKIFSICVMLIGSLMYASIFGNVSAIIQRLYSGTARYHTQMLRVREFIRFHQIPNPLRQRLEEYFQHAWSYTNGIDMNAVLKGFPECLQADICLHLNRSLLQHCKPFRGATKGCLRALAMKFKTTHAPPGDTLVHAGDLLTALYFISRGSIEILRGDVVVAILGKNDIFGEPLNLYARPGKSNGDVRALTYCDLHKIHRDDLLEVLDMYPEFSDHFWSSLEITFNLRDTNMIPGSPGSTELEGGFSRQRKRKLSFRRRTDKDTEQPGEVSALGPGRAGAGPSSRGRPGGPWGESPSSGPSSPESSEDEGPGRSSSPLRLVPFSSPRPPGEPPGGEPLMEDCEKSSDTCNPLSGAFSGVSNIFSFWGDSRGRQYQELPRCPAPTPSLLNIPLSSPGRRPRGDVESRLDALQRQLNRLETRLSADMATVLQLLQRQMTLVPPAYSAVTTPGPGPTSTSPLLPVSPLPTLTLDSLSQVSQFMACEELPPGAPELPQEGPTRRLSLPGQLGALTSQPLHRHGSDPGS
Cytochrome P450 2C19, sequence (P33261 whole entry): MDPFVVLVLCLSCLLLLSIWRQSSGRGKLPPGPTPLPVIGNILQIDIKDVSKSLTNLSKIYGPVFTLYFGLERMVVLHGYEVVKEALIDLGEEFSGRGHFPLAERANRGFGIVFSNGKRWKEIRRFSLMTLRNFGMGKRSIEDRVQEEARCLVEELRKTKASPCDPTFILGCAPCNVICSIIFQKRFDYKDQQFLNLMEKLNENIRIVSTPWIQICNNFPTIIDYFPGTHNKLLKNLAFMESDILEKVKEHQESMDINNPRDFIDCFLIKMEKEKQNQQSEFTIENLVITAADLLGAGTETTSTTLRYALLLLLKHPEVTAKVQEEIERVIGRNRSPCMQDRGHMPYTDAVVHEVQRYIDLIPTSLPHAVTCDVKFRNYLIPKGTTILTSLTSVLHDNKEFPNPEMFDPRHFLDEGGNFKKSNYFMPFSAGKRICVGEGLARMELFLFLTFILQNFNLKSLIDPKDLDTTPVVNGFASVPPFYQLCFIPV

COc1ccc(CNC(=O)c2sc3nnc(C)c(C)c3c2N)cc1F
Cmax [1]: 220 nM | Tmax [2]: 45 min | Activity [3]: Non-Toxic | Kp [4]: 0.31 | EC50 [5]: > 30 µM | Activity [6]: Non-Toxic | half-life [7]: 28.8 min | EC50 (Cytochrome P450 1A2 [8]): > 50 µM | Activity (Cytochrome P450 1A2 [9]): 21.4% | AUC(0-inf) [10]: 0.59 µM·h | Activity (Cytochrome P450 2C19): 31.2% | fraction unbound at 4 h [11]: 0.031 | Activity [12]: Non-Toxic | Vd [13]: 0.88 L/kg | Kp [14]: 1 | Activity (Cytochrome P450 2D6 [15]): 0.2% | IC50 [16]: > 33 µM | Vdss [17]: 1.5 L/kg | Activity (Cytochrome P450 3A4): 43.7% | half-life [18]: 252 min | Vdss [19]: 1.5 L/kg | IC50 (Cytochrome P450 2D6 [20]): > 30 µM | EC50 [21]: 0.087 µM | Activity (CHO): 49% | EC50 [22]: 0.102 µM | AUC(0-inf) [23]: 3.8 µM·h
